Test results reported in patent US11672786B2, “Methods of treating diseases associated with repeat instability” (The Hospital for Sick Children, priority 2016, dated 2023).

Key:
single CAG slip-out = assay: in vitro repair assay by HeLa cell extracts, single repeat slip-out; format: biochemical, human
Source text: Panel A of […] is a schematic of the in vitro repair assay. Starting DNAs and repair products released the repeat-containing fragment, which is resolved on PAGE and assessed on a molar level by Southern blotting and densitometry. Repair of different DNA substrates containing a long (CAG)20 slip-out (Panel B of FIG. 3) long (CTG)20 slip-out (Panel C of FIG. 3), a single CAG slip-out (Panel D of FIG. 3) or a single G-T mismatch (Panel E of FIG. 3), in the absence or in the presence of NA. Slipped-DNA substrates were prepared from hybrids of (CAG)50●(CTG)30, (CAG)30●(CTG)50 or of (CAG)50●(CTG)49. Repair of the G-T mismatch reconstitutes a HindIII restriction site, as shown schematically. Graphs show percentage repair efficiencies to repaired product relative to all repeat-containing fragments in the lane, values are normalized to the NA-free efficiency. […]
To determine how the binding of NA to slipped DNA structures affects repair, a series of circular slipped heteroduplex substrates was made with an excess of repeats with a nick located either 5′ or 3′ of the slip-out (FIG. 3). […] All these substrates were processed in […] by HeLa extracts and then were assessed for repair. Repair products were analyzed by Southern blotting, probed for the repeat-containing fragment, and compared with starting material, which permitted quantitative assessment of repair efficiency at a molar level. […]

[1] = tested on: plasmids pDM79EF, pDM79HF, pKN16 with SV40 origin of replication; assay: in vitro SV40 replication assay by HeLa cell extracts; format: biochemical, human; conditions: NA 7.5 μM or 15 μM
Procedure: Three circular plasmids containing the SV40 origin of replication, and an expanded (CAG)79●(CTG)79 repeat tract (pDM79EF and pDM79HF) or no repeats (pKN16), were replicated in vitro by human HeLa cell extracts and added recombinant SV40 T-Ag, without or with NA (7.5 μM or 15 μM) treatment. […] Replication products were purified and linearized with BanHI. An equal portion of the reaction material was also digested with BamHI and DpnI; DpnI digests un-replicated and partially-replicated material, as shown in the schematic (top figure).
These templates containing repeats (pDM79EF and pDM79HF) and another substrate with SV40-ori and no-repeats (pKN16) were replicated in vitro by HeLa cell extract adding [α-^32P]dCTP and T-Antigen, as described in detail in Panigrahi et al. (2002, J. Biol. Chem., 277:13926-34) and Cleary et al. (2002, Nat. Genet., 31(1):37-46). Replication reaction was performed without or with NA (7.5 μM and 15 μM). Radioactive replication products were purified, linearized with BamHI, and treated with DpnI (for details see FIG. 9). […] Equal quantities of reaction products were resolved by electrophoresis on a 15-cm 1% agarose gel. The gel was run for 16 h at 4 V/cm in TBE buffer, dried, and exposed to Kodak film.

[2] = tested on: transgene transcript in the CAG-direction, HT1080-(CAG)850 cells; assay: transgene mRNA quantification by quantitative RT-PCR; format: cell-based, human; conditions: NA 50 μM, 72 hr
Source text: FIG. 5 are results from experiments showing that NA induces CAG contractions in HT1080-(CAG)850 cells, independent of proliferation, dependent upon rCAG transcription. […] Panel B of FIG. 5 are histograms showing repeat length distributions in HT1080-(CAG)850 cells. Frequency distribution of unstable alleles is shown by gray bars. Frequency of stable alleles is shown by black bars. To facilitate comparisons, a dashed line indicates the unchanged CAG size. Allele lengths are grouped in bins spanning 50 repeats. […] More than 50 alleles were sized for each group. P-value was calculated by chi-square test (Table 2). […] P-value was calculated by Student's t-test. […] Quantitative reverse transcription (RT)-PCR was performed using TaqMan Gene Expression assays. […]
RNA was harvested from the HT1080-(CAG)850 cells at 72 hr after adding or not adding NA using the RNeasy Plus Micro Kit (Qiagen). Total RNA was primed with random hexamers and reverse transcribed with Superscript III (Life Technologies, Carlsbad, Calif.), followed by treatment with RNase H. Quantitative reverse transcription (RT)-PCR was performed using TaqMan Gene Expression assays or PrimeTime qPCR assays on an ABI PRISM 7900HT Sequence Detection System (Life Technologies) and the primer sequences shown in Table 1. […] The results were statistically analyzed using paired t-tests. […]

(CAG)10 hairpins = conditions: cited from earlier work

naphthyridine-azaquinolone
effect on repair of a single repeat CAG or CTG slip-out (single CAG slip-out): unaffected
effect on replication efficiency and replication fork progression [1]: does not affect replication efficiency or replication fork progression
effect on RNA transcript levels of transgene [2]: did not affect transcription of the CAG-repeats containing transcript
melting temperature of (CAG)10 hairpins with NA ((CAG)10 hairpins; 50 μM NA, 47.1 (±0.7)° C. without NA): 78.8 (±0.1) ° C.
increase of the melting temperature of (CAG)10 hairpins ((CAG)10 hairpins): > 30 °C
